What was measured:
[1] = molecular target: Fibroblast growth factor receptor 4 (Homo sapiens, UniProt P22455); experiment: Selectivity interaction (KinomeScan (DiscoverX)) EUB0001049a FGFR4; details: at 1 µM
[2] = molecular target: T1, Membrane-associated tyrosine- and threonine-specific cdc2-inhibitory kinase (Homo sapiens) (UniProt Q99640); experiment: Selectivity interaction (KinomeScan (DiscoverX)) EUB0000666a PKMYT1; details: at 10 µM
T1 sequence (whole entry): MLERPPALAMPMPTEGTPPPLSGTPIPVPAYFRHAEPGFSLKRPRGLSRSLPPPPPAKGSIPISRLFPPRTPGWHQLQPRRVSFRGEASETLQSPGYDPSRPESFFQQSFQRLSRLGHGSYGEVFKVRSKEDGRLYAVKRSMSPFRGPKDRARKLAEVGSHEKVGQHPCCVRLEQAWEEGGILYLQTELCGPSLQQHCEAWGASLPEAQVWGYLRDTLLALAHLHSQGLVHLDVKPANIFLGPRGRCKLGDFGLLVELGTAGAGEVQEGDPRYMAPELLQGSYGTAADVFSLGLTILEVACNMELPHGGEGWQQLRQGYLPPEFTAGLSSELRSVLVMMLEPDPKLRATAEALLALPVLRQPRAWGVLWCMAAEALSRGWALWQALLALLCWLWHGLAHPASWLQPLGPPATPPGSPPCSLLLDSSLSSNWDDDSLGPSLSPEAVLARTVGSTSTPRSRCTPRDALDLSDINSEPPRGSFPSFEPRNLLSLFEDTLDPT

[3] = molecular target: T2, Serine/threonine-protein kinase DCLK1 (Homo sapiens) (UniProt O15075); experiment: Selectivity interaction (KinomeScan (DiscoverX)) EUB0001079a DCLK1; details: at 1 µM
T2 sequence (whole entry): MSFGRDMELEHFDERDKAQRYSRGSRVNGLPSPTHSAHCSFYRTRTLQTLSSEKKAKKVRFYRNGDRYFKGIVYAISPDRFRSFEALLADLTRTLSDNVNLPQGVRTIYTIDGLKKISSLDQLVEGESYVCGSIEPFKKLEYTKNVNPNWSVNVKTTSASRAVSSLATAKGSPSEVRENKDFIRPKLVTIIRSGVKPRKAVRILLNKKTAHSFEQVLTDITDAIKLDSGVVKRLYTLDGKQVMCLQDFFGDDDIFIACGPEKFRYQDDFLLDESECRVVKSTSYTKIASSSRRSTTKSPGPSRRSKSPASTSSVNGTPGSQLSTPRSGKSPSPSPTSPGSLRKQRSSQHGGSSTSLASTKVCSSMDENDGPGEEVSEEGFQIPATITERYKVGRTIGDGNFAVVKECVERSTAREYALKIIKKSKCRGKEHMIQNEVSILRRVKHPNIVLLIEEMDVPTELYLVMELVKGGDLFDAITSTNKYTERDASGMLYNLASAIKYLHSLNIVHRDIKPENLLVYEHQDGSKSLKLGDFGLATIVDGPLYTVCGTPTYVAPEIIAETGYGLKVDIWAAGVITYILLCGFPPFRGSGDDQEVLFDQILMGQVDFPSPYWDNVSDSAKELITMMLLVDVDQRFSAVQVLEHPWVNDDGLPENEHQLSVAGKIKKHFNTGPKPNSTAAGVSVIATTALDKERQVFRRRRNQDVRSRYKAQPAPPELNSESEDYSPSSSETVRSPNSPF

[4] = molecular target: T3, Phosphorylase b kinase gamma catalytic chain, liver/testis isoform (Homo sapiens) (UniProt P15735); experiment: Selectivity interaction (Kinase screening (Nanosyn)) EUB0000604a PHKG2
T3 sequence (whole entry): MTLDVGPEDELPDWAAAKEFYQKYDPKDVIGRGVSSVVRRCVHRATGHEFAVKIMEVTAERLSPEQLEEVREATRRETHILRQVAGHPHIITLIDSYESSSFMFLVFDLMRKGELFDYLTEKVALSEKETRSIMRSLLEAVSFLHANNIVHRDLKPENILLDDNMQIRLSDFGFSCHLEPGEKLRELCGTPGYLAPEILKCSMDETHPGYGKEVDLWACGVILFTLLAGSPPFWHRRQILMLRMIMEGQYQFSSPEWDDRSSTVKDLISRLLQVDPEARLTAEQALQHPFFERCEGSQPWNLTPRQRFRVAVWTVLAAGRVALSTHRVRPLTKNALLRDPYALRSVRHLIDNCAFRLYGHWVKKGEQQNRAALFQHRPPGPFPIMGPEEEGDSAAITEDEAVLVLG

[5] = molecular target: T4, Cyclin-dependent kinase-like 2 (Homo sapiens) (UniProt Q92772); experiment: Selectivity interaction (KinomeScan (DiscoverX)) EUB0000618a CDKL2; details: at 10 µM
T4 sequence (whole entry): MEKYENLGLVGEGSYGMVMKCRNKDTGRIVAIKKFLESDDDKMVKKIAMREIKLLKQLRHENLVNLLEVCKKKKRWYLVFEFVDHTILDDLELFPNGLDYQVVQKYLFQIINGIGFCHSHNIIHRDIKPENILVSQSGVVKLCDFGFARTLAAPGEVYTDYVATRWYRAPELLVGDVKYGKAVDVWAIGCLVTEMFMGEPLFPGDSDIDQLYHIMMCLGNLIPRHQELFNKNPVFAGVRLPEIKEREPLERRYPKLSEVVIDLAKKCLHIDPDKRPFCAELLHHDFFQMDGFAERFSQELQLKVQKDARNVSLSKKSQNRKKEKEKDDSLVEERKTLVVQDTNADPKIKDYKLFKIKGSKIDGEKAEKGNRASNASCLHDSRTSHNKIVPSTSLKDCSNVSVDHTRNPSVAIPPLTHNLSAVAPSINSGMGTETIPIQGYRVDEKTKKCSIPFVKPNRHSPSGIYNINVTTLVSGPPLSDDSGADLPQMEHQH

[6] = molecular target: T5, Dual specificity mitogen-activated protein kinase kinase 3 (Homo sapiens) (UniProt P46734); experiment: Selectivity interaction (KinomeScan (DiscoverX)) EUB0001619a MAP2K3; details: at 1 µM
T5 sequence (whole entry): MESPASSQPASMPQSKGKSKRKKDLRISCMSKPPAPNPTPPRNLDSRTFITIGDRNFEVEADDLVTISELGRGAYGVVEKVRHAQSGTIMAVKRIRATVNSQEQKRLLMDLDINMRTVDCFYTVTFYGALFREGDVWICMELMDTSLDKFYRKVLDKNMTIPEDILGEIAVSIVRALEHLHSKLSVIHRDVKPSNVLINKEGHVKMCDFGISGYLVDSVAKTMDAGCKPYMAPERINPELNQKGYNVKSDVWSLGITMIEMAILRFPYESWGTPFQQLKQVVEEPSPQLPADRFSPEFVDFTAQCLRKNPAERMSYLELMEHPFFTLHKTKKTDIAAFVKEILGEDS

[7] = system: Epidermal growth factor receptor (Homo sapiens), P00533 [UNDEFINED MUTATION]; experiment: Selectivity interaction (KinomeScan (DiscoverX)) EUB0001619a EGFR; details: at 1 µM
Chain of Epidermal growth factor receptor (Homo sapiens), P00533 [UNDEFINED MUTATION] (P00533 whole entry, looked up, change not shown): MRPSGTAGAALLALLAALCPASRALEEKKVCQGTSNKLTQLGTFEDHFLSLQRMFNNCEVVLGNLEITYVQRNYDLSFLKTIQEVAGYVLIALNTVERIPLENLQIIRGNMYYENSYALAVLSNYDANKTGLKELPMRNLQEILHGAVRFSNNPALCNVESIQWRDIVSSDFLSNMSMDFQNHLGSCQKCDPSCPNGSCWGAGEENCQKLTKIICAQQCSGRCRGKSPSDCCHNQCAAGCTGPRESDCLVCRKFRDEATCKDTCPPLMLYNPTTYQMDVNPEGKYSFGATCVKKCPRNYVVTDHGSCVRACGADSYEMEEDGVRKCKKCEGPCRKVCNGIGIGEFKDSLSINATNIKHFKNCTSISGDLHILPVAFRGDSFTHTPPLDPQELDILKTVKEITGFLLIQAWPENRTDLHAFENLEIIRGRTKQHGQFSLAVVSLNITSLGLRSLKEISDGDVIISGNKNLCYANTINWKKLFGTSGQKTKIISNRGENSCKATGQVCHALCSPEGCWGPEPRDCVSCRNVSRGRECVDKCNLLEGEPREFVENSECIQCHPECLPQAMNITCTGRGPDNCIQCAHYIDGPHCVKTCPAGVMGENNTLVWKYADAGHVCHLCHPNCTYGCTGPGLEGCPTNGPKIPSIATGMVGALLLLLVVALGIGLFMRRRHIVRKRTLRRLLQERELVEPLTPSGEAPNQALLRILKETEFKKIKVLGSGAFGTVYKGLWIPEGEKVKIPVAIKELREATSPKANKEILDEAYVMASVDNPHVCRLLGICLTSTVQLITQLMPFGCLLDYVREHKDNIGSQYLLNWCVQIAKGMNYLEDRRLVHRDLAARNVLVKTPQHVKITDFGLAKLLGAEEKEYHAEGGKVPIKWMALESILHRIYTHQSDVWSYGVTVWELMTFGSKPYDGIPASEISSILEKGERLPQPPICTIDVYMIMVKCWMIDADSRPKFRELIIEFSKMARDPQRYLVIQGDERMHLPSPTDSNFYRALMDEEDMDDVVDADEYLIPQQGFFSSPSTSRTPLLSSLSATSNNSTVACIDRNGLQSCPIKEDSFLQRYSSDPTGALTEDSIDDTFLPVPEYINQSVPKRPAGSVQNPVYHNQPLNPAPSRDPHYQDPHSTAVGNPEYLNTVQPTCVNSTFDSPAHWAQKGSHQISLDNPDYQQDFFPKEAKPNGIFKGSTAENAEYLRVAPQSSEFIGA

Chain of Fibroblast growth factor receptor 4 (P22455 22-802 limits assumed): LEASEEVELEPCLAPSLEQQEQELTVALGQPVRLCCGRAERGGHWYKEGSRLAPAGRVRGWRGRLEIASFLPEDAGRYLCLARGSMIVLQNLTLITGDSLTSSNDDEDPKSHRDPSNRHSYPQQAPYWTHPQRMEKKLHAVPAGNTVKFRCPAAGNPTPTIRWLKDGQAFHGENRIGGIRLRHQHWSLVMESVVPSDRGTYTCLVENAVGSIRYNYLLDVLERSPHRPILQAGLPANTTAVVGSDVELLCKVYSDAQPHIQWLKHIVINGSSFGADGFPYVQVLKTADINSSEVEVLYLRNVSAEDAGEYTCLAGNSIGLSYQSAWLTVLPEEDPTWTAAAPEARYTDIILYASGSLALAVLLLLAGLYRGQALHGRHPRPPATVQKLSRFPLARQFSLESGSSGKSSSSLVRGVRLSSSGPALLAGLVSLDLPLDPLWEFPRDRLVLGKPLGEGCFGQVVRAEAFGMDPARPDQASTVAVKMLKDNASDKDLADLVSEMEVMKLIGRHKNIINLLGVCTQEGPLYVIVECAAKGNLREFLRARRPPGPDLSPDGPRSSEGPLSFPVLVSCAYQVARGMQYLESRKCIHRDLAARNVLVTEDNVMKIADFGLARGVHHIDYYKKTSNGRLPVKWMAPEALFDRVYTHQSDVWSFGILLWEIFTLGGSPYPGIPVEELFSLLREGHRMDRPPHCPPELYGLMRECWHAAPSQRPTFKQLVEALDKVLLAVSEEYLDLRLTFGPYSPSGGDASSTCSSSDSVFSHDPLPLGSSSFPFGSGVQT

## COc1cc(Nc2nc(C)cc(-c3cnn4nc(OC)ccc34)n2)cc(C(F)(F)F)c1
[1]
  % of control: 100%

## O=C(NOC[C@H](O)CO)c1ccc(F)c(F)c1Nc1ccc(I)cc1F
[2]
  % of control: 80%

## Nc1cnc(N2CCc3cc(S(=O)(=O)Nc4c(F)cc(Cl)cc4F)cc(N4CCCC4=O)c32)nc1 [TP-020n]
[3]
  % of control: 100%

## Cc1cnc(Nc2ccc(F)cc2Cl)nc1-c1c[nH]c(C(=O)N[C@H](CO)c2cccc(Cl)c2)c1
[4]
  % of inhibition: 4%

## O[C@H]1CC[C@H](Nc2ncc3nc(Nc4c(F)cc(F)cc4F)n([C@H]4CCOC4)c3n2)CC1
[5]
  % of control: 100%

## N#Cc1cccc(-c2c[nH]c3ncnc(N4CCOCC4)c23)c1
[6]
  % of control: 71%
[7]
  % of control: 82%
